In patent US20180346731A1, “Formation of Stable Pyranoanthocyanins, and Uses Thereof as Sources of Natural Color” (Ohio State Innovation Foundation, priority 2017, published 2018):

Legend:
[1] = Colorimetry (CIEL*c*h*, ΔE) of pigment solutions with ascorbic acid; assay type: physicochemical
Protocol: The semi-purified chokeberry extract, the isolated cyanidin-3-galactoside, and the purified 5-carboxypyranocyanidin-3-galactoside were diluted in pH 3.0 citrate buffer (0.1 M adjusted with HCl) until an absorbance of 1.0 at their respective λmax was reached. Levels of AA of 250, 500, and 1000 mg/L were added using a concentrated ascorbic acid stock solution, and a control consisting of each pigment with the absence of AA was maintained. The control consisted of the pigment in the buffer in the absence of AA. An additional test was performed with the same model juice using hydrogen peroxide, a known degradation product of AA. To determine if AA bleaching was due to formation of H2O2, direct addition of it was investigated. In place of added AA, a 62.2 μL of a 0.3% peroxide solution was added to match the molar equivalency of the 500 mg/L AA level, which was 2.84 mM.
All samples were brought to the same final volume with additional citrate buffer. […] Samples were stored in the dark at 25° C. in an incubator. UV-Vis spectrophotometry, colorimetry, and HPLC analyses were conducted over a 5 day period following the addition of ascorbic acid or hydrogen peroxide. UV-Vis spectral data was collected every hour for the first 8 hours, and then at 12 hr, and daily from that point on for 5 days. […] HPLC analyses were conducted on days 0, 1, 3, and 5. All treatments were run in triplicate.
Using UV-Vis spectral data (5 nm steps, 380-700 nm) in combination with software written for color conversion, absorbance data was translated to CIE-L*c*h*. The calculations for CIE-L*c*h* implemented by the software used CIE relative spectral power distribution for a D65 standard illuminants and 10° observer angle function. Color data is reported as L* (lightness), c* (chroma), and h* (hue angle).
Total color changes (ΔE) were calculated as the color change from day 0 to 5 for each respective treatment, and presented in Table 4.
Numbers are means of 3 replications, followed by (standard deviations). ΔE: total color change from day 0 (control) to day 5.

[2] = Anthocyanin survival of control treatments at pH 2.5 (uHPLC AUC 500-520 nm); assay type: physicochemical; details: pH 2.5 acidified water, no pyruvic acid, 25° C., day 31
Protocol: FIG. 10: Pyranoanthocyanin yield for anthocyanins (500 μM) subjected to pyruvic acid treatment (×100 M ratio) and anthocyanin survival of control treatments at pH 2.5 acidified water at day 7, 14, and 31. Yield defined as (AUC500-520 nm of PACN at tn/AUC500-520 nm of ACN @t0)*100. Survival defined as (AUC500-520 nm of ACN at tn/AUC500-520 nm of ACN @ t0)*100. Values shown are means (n=3) and bars represent standard deviation.
A uHPLC system (Shimadzu Nexera-i LC-2040C, Maryland, U.S.) coupled with tandem MS (Shimadzu LCMS-8040, Maryland, U.S.) was used in evaluating initial anthocyanin purity and monitoring changes in anthocyanins with and without pyruvic acid treatment over time. A 0.4 mL/min flow rate was used on a Pinnacle DB (Restek Corporation, Bellefonte, Pa.) C18 Column (1.9 μm particle size, 50×2.1 mm length). The column oven was set at 40° C. The following gradient of solvent A (4.5% formic acid) and B (100% acetonitrile) was used: 0% B for the first minute, ramped to 15% B by 10 min. This method was effective for separation of the formed pyranoanthocyanin from anthocyanin for all isolates except cy3rut which coeluted with the formed pyranoanthocyanin. This was observed through MS-MS data. […]
Quantification of pigments was conducted on day 0, 3, 7, 14, and 31 using a standard curve of cyanidin-3-glucoside (Sigma Aldrich, St. Louis, Mo., U.S.) run under the same conditions used for isolates. Molar absorptivities of anthocyanins and carboxypyranoanthocyanidins have been reported as being relatively similar and were thought to provide a basis of confidence in using AUC500-520 nm as a quantitative measure of pyranoanthocyanin yield.
Prior to dilution, the concentrations of the isolated pigment extracts were determined by the pH differential method for subsequent dilution to known concentrations. The isolates were then diluted to 500 μM (expressed as Cyanidin-3-glucoside equivalents) in pH 2.5 deionized water (previously adjusted with HCl) which contained 0.1% potassium sorbate (w/v) and 0.1% sodium benzoate (w/v) to function as preservative agents during storage. […]

[3] = 1000 mg/L AA, listed as cyanidin-3-galactoside

In the case of `OC[C@H]1O[C@@H](Oc2cc3c(O)cc(O)cc3[o+]c2-c2ccc(O)c(O)c2)[C@H](O)[C@@H](O)[C@H]1O` [Cyanidin-3-galactoside, cyanidin-3-galactoside], the “Chroma Day 0” value ([1]; 250 mg/L AA) is reported as 50.8 (0.2), the “Chroma Day 5” value ([1]; 250 mg/L AA) is reported as 13.9 (0.7) and the “Hue Angle Day 0” value ([1]; 250 mg/L AA) is reported as 18.7 (0.1) °. For the same compound, the “Hue Angle Day 5” value ([1]; 250 mg/L AA) was 21.9 (1.2) °, the “Lightness Day 0” value ([1]; 250 mg/L AA) was 77.5 ( ).2) and the “Lightness Day 5” value ([1]; 250 mg/L AA) was 93.2 (0.3). For the same compound, the “ΔE Over 5 days” value ([1]; 250 mg/L AA) was 19.3 (0.3), the “Chroma Day 0” value ([1]; 500 mg/L AA) was 51.8 (0.0) and the “Chroma Day 5” value ([1]; 500 mg/L AA) was 10.5 (0.4). The “Hue Angle Day 0” value ([1]; 500 mg/L AA) was 18.8 (0.0) °, the “Hue Angle Day 5” value ([1]; 500 mg/L AA) was 51.1 (2.7) ° and the “Lightness Day 0” value ([1]; 500 mg/L AA) was 77.0 (0.1). For the same compound, the “Lightness Day 5” value ([1]; 500 mg/L AA) was 94.4 (0.6), the “ΔE Over 5 days” value ([1]; 500 mg/L AA) was 23.6 (0.2) and the “Chroma Day 0” value ([1]; 1000 mg/L AA) was 50.9 (0.1). The “Chroma Day 5” value ([1]; 1000 mg/L AA) was 13.7 (1.8), the “Hue Angle Day 0” value ([1]; 1000 mg/L AA) was 18.7 (0.1) ° and the “Hue Angle Day 5” value ([1]; 1000 mg/L AA) was 77.5 (4.5) °. The “Lightness Day 0” value ([1]; 1000 mg/L AA) was 77.2 (0.3), the “Lightness Day 5” value ([1]; 1000 mg/L AA) was 94.5 (0.7) and the “ΔE Over 5 days” value ([1]; 1000 mg/L AA) was 27.6 (0.7). The “L* after 48 hours” value ([1]; 1000 mg/L AA, 48 hours) was 96.4, the “Hue Angle Day 0” value [1, 3] was 18.7 ° and the “Hue Angle Day 5” value [1, 3] was 77.5 °. For the same compound, the “Lightness Day 0” value [1, 3] was 77.2, the “ΔE Over 5 days” value [1, 3] was 27.6 and the “Chroma Day 0” value ([1]; Control, no AA) was 51.2 (0.2). For the same compound, the “Chroma Day 5” value ([1]; Control, no AA) was 46.5 (2.1), the “Hue Angle Day 0” value ([1]; Control, no AA) was 18.6 (0.1) ° and the “Hue Angle Day 5” value ([1]; Control, no AA) was 15.9 (1.0) °. For the same compound, the Lightness Day 5 ([1]; Control, no AA) was 79.4, the “ΔE Over 5 days” value ([1]; Control, no AA) was 2.6 (1.1) and the “Lightness Day 0” value ([1]; Control, no AA, mean (SD), n=3) was 77.3 (0.1). The “time until significant change in chroma as compared to the control” value ([1]; all levels of AA) was 2 h, the initial hue angle ([1]; day 0) was 16.6 ° and the “anthocyanin survival of control treatment” value [2] was 84%.
